Results published in the supplement of paper PMC11061612.

What was measured:
Experiment in all cases: Bliss excess, mean over the matrix (fraction); higher = more synergy
[1] = tested on: KARPAS-231 (B-Cell Non-Hodgkin's Lymphoma)
How it was run: (§1)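 After 24 hours at 37°C and 5% CO2 in 1536-well plates, cells in DMEM/F12 or RPMI plus 10% FBS received two-drug dose matrices for 72 hours. Viability came from CellTiter-Glo 2.0 luminescence and was scaled as inhibition, anchored at 0 by vehicle wells and at 1 by blank wells. Combination Emax is taken as the second-highest inhibition in the matrix, and Bliss excess as the observed combination effect less EA + EB − EA·EB, with EA and EB the single-agent effects.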

COLO-829 (Melanoma) = tested on: COLO-829 (Melanoma)
How it was run: as §1

[2] = tested on: SUP-T1 (T-Lymphoblastic Leukemia)
How it was run: as §1

[3] = tested on: TE-4 (Esophageal Squamous Cell Carcinoma)
How it was run: as §1

[4] = tested on: NCI-H747 (Colorectal Carcinoma)
How it was run: as §1

[5] = tested on: CAL-54 (Kidney Carcinoma)
How it was run: as §1

[6] = tested on: 8305C (Thyroid Gland Carcinoma)
How it was run: as §1

[7] = tested on: CAL-51 (Breast Carcinoma)
How it was run: as §1

[8] = tested on: KYSE-410 (Esophageal Squamous Cell Carcinoma)
How it was run: as §1

[9] = tested on: PCI-30 (Head and Neck Carcinoma)
How it was run: as §1

HMV-II (Melanoma) = tested on: HMV-II (Melanoma)
How it was run: as §1

[10] = tested on: RKO (Colorectal Carcinoma)
How it was run: as §1

[11] = tested on: RT-112 (Bladder Carcinoma)
How it was run: as §1

[12] = tested on: LB771-HNC (Head and Neck Carcinoma)
How it was run: as §1

[13] = tested on: OC-314 (Ovarian Carcinoma)
How it was run: as §1

[14] = tested on: SW1271 (Small Cell Lung Carcinoma)
How it was run: as §1

NCI-H28 (Mesothelioma) = tested on: NCI-H28 (Mesothelioma)
How it was run: as §1

[15] = tested on: LU-139 (Small Cell Lung Carcinoma)
How it was run: as §1

[16] = tested on: MDA-MB-468 (Breast Carcinoma)
How it was run: as §1

| SMILES | Bliss excess [1] | Bliss excess (COLO-829 (Melanoma)) | Bliss excess [2] | Bliss excess [3] | Bliss excess [4] | Bliss excess [5] | Bliss excess [6] | Bliss excess [7] | Bliss excess [8] | Bliss excess [9] | Bliss excess (HMV-II (Melanoma)) | Bliss excess [10] | Bliss excess [11] | Bliss excess [12] | Bliss excess [13] | Bliss excess [14] | Bliss excess (NCI-H28 (Mesothelioma)) | Bliss excess [15] | Bliss excess [16] |
| --- | --- | --- | --- | --- | --- | --- | --- | --- | --- | --- | --- | --- | --- | --- | --- | --- | --- | --- | --- |
| C=CCn1c(=O)c2cnc(Nc3ccc(N4CCN(C)CC4)cc3)nc2n1-c1cccc(C(C)(C)O)n1 [AZD1775] + C1CN(CCC1(C(=O)N[C@@H](CCO)C2=CC=C(C=C2)Cl)N)C3=NC=NC4=C3C=CN4 [Capivasertib] (first compound max 3 µM, partner max 3 µM) | 0.0311 | 0.0335 | -0.0212 | -0.045 | -0.0485 | -0.0622 | 0.0069 | -0.0188 | -0.0015 | -0.0677 | -0.0774 | 0.0179 | -0.0348 | -0.0581 | -0.0158 | -0.0161 | -0.0725 | 0.0096 | – |
| C=CCn1c(=O)c2cnc(Nc3ccc(N4CCN(C)CC4)cc3)nc2n1-c1cccc(C(C)(C)O)n1 [AZD1775] + CCc1c2c(nc3ccc(O)cc13)-c1cc3c(c(=O)n1C2)COC(=O)[C@]3(O)CC [SN-38] (first compound max 1 µM, partner max 0.3 µM) | – | – | -0.105 | – | – | -0.0327 | -0.0536 | – | – | 0.0013 | -0.122 | -0.0377 | 0.109 | – | 0.0032 | -0.0391 | -0.0503 | -0.0526 | -0.0811 |
| COc1nnc2ccc(N3CCC(c4ccc(OCCN5CCN(C)C(=O)[C@H]5C)cc4)CC3)nn12 [AZD5153] + C=CCn1c(=O)c2cnc(Nc3ccc(N4CCN(C)CC4)cc3)nc2n1-c1cccc(C(C)(C)O)n1 [AZD1775] (first compound max 1 µM, partner max 1 µM) | -0.112 | -0.0178 | -0.068 | -0.0199 | -0.0633 | -0.0366 | -0.077 | -0.0111 | -0.0516 | -0.0307 | -0.0783 | -0.0866 | -0.0342 | -0.0069 | 0.0105 | -0.0763 | -0.0562 | -0.0474 | – |
| COc1nnc2ccc(N3CCC(c4ccc(OCCN5CCN(C)C(=O)[C@H]5C)cc4)CC3)nn12 [AZD5153] + CC1(C)CCC(CN2CCN(c3ccc(C(=O)NS(=O)(=O)c4ccc(NCC5CCOCC5)c([N+](=O)[O-])c4)c(Oc4cnc5[nH]ccc5c4)c3)CC2)=C(c2ccc(Cl)cc2)C1 [Venetoclax] (first compound max 1 µM, 7x7, partner max 1 µM) | -0.135 | -0.0356 | -0.0766 | -0.0291 | -0.0522 | -0.0374 | -0.0901 | -0.0513 | -0.0898 | -0.0894 | -0.0695 | 0.0122 | -0.0479 | -0.0704 | -0.0149 | -0.108 | 0.0174 | 0.0391 | – |
| COc1nnc2ccc(N3CCC(c4ccc(OCCN5CCN(C)C(=O)[C@H]5C)cc4)CC3)nn12 [AZD5153] + CCN(CCO)CCCOc1ccc2c(Nc3cc(CC(=O)Nc4cccc(F)c4)[nH]n3)ncnc2c1 [AZD2811] (first compound max 1 µM, 7x7, partner max 1 µM) | -0.203 | -0.0173 | 0.0027 | -0.0116 | -0.0623 | -0.0225 | -0.0629 | -0.0038 | -0.0182 | -0.0568 | -0.0481 | -0.0096 | -0.0595 | -0.0006 | -0.04 | -0.0234 | -0.0415 | 0.0203 | – |
| COc1nnc2ccc(N3CCC(c4ccc(OCCN5CCN(C)C(=O)[C@H]5C)cc4)CC3)nn12 [AZD5153] + C[C@@H]1COCCN1C2=NC(=NC(=C2)C3(CC3)[S@](=N)(=O)C)C4=C5C=CNC5=NC=C4 [AZD6738] (first compound max 1 µM, 7x7, partner max 10 µM) | -0.0609 | -0.0138 | -0.0445 | 0.0983 | 0.0079 | -0.0043 | -0.0088 | 0.0189 | 0.041 | -0.014 | 0.0169 | -0.0442 | 0.0298 | 0.0467 | 0.0111 | -0.0204 | 0.0141 | 0.01 | – |
| COc1nnc2ccc(N3CCC(c4ccc(OCCN5CCN(C)C(=O)[C@H]5C)cc4)CC3)nn12 [AZD5153] + Cc1c2c(nn1C)CSCc1cc(n(C)n1)CSc1cc(c3ccccc3c1)OCCCc1c(C(=O)O)n(C)c3c-2c(Cl)ccc13 [AZD5991] (first compound max 1 µM, 7x7, partner max 1 µM) | -0.128 | -0.0168 | -0.021 | -0.0212 | -0.0442 | -0.0396 | -0.0922 | 0.0291 | 0.0001 | -0.0218 | -0.0092 | -0.0293 | 0.0039 | 0.0475 | -0.0625 | -0.0242 | -0.0976 | -0.0069 | – |
| COc1nnc2ccc(N3CCC(c4ccc(OCCN5CCN(C)C(=O)[C@H]5C)cc4)CC3)nn12 [AZD5153] + Cn1cnc2c(F)c(Nc3ccc(Br)cc3Cl)c(C(=O)NOCCO)cc21 [Selumetinib] (first compound max 1 µM, 7x7, partner max 10 µM) | -0.0464 | -0.0086 | -0.052 | 0.0311 | -0.0727 | -0.0165 | -0.0323 | 0.0099 | -0.0784 | -0.0426 | 0.0275 | 0.0263 | 0.0423 | -0.0895 | -0.064 | -0.0034 | -0.0199 | 0.0169 | – |
| COc1cc2ncnc(Nc3ccc(F)c(Cl)c3)c2cc1OCCCN1CCOCC1 [Gefitinib] + CC(C)n1c(=O)n(C)c2cnc3cc(F)c(-c4ccc(OCCCN5CCCCC5)nc4)cc3c21 [AZD1390] (first compound max 10 µM, 7x7, partner max 0.3 µM) | -0.0423 | -0.0599 | -0.0389 | -0.0286 | -0.0986 | -0.0718 | -0.147 | -0.0485 | -0.0779 | -0.0871 | -0.0442 | -0.0362 | -0.0548 | -0.0648 | -0.0314 | -0.0388 | – | -0.0251 | – |
| CS(=O)(=O)CCNCc1ccc(-c2ccc3ncnc(Nc4ccc(OCc5cccc(F)c5)c(Cl)c4)c3c2)o1 [Lapatinib] + Cn1cnc2c(F)c(Nc3ccc(Br)cc3Cl)c(C(=O)NOCCO)cc21 [Selumetinib] (first compound max 10 µM, 7x7, partner max 10 µM) | – | – | -0.0679 | – | – | 0.0022 | -0.0297 | – | – | 0.0027 | -0.141 | 0.0413 | 0.0134 | – | 0.0644 | -0.0167 | -0.0026 | -0.0161 | -0.0835 |
| CS(=O)(=O)CCNCc1ccc(-c2ccc3ncnc(Nc4ccc(OCc5cccc(F)c5)c(Cl)c4)c3c2)o1 [Lapatinib] + NC1(c2ccc(-c3nc4ccn5c(=O)[nH]nc5c4cc3-c3ccccc3)cc2)CCC1 [MK-2206] (first compound max 10 µM, 7x7, partner max 10 µM) | – | -0.0245 | -0.0215 | – | -0.126 | -0.0009 | 0.118 | – | – | -0.0005 | -0.0337 | -0.0002 | 0.0746 | – | 0.043 | 0.0083 | -0.0103 | 0.0119 | 0.0008 |
| C[C@@H](c1ccc2nccn2c1)n1nnc2ncc(-c3cnn(C)c3)nc21 [Savolitinib] + CC1(C)CCC(CN2CCN(c3ccc(C(=O)NS(=O)(=O)c4ccc(NCC5CCOCC5)c([N+](=O)[O-])c4)c(Oc4cnc5[nH]ccc5c4)c3)CC2)=C(c2ccc(Cl)cc2)C1 [Venetoclax] (first compound max 1 µM, 7x7, partner max 1 µM) | -0.0344 | -0.0411 | -0.0456 | -0.009 | -0.0817 | -0.102 | -0.115 | -0.0522 | -0.0726 | -0.0899 | -0.0621 | -0.05 | -0.046 | -0.0912 | -0.0046 | -0.0436 | -0.0481 | -0.0256 | – |
| C[C@@H](c1ccc2nccn2c1)n1nnc2ncc(-c3cnn(C)c3)nc21 [Savolitinib] + Cc1c2c(nn1C)CSCc1cc(n(C)n1)CSc1cc(c3ccccc3c1)OCCCc1c(C(=O)O)n(C)c3c-2c(Cl)ccc13 [AZD5991] (first compound max 1 µM, 7x7, partner max 1 µM) | -0.0258 | -0.0075 | -0.0571 | -0.0289 | -0.0465 | -0.0337 | -0.0781 | -0.0115 | -0.0749 | -0.0878 | -0.0404 | -0.0067 | -0.0265 | -0.054 | -0.018 | -0.0415 | -0.0643 | -0.0213 | – |
| Cn1cnc2c(F)c(Nc3ccc(Br)cc3Cl)c(C(=O)NOCCO)cc21 [Selumetinib] + C=CCn1c(=O)c2cnc(Nc3ccc(N4CCN(C)CC4)cc3)nc2n1-c1cccc(C(C)(C)O)n1 [AZD1775] (first compound max 10 µM, partner max 1 µM) | -0.0167 | -0.0734 | -0.0663 | -0.0849 | -0.0761 | -0.076 | -0.0383 | -0.0175 | 0.0543 | -0.0183 | -0.0494 | -0.0202 | -0.0352 | -0.0937 | -0.027 | -0.0806 | -0.0376 | 0.0238 | – |
| Cn1cnc2c(F)c(Nc3ccc(Br)cc3Cl)c(C(=O)NOCCO)cc21 [Selumetinib] + CC(C)n1c(=O)n(C)c2cnc3cc(F)c(-c4ccc(OCCCN5CCCCC5)nc4)cc3c21 [AZD1390] (first compound max 10 µM, 7x7, partner max 0.3 µM) | -0.0101 | -0.0578 | -0.0481 | -0.0461 | -0.0334 | -0.0377 | -0.057 | -0.0271 | -0.0327 | -0.0208 | -0.0262 | -0.0273 | -0.0217 | -0.067 | -0.0357 | 0.0379 | -0.0403 | -0.0259 | – |
| Cc1nc(-c2cn3c(n2)-c2ccc(-c4cnn(C(C)(C)C(N)=O)c4)cc2OCC3)n(C(C)C)n1 [Taselisib] + O=C(Nc1ccc2[nH]nc(-c3ccncc3)c2c1)[C@@H]1CCN(CC(=O)N2CCN(c3ccc(-c4ncccn4)cc3)CC2)C1 [SCH772984] (first compound max 10 µM, 7x7, partner max 5 µM) | – | – | 0.0502 | – | – | -0.0024 | 0.0199 | – | – | 0.023 | 0.0285 | 0.146 | 0.108 | – | 0.0521 | -0.0096 | 0.0417 | -0.0066 | -0.003 |
